For one test, the target named is PfPKG (Plasmodium falciparum, UniProt Q8I719). In words: PfPKG enzyme activity assay, recombinant WT. Type of test: biochemical. Here is the method: Direct inhibition of recombinant PfPKG phosphorylation activity was carried out using a previously described nonradioactive assay. The assay evaluates PfPKG activity based on changes in initial ATP concentration via luminescence after enzyme phosphorylation of peptide substrate PKCtide ([…]) (SignalChem, Richmond, BC Canada). Enzyme kinase activity was measured in the presence of 26 μM PKCtide; 50.1 nM PfPKG; and 20 μM cGMP in a buffered solution containing 20 mM β-glycerol-phosphate, 20 mM MgCl2, 25 mM HEPES pH 7.5 (KOH), 0.1% BSA and 2 mM DTT. The reaction was activated by the addition of 10 μM ATP with incubation at 30 °C and 90 rpm agitation for 120 min. […] Each assay plate contained reaction wells with no enzyme, no PKCtide peptide substrate and no cGMP as internal controls.
Chain of PfPKG (Q8I719 whole entry): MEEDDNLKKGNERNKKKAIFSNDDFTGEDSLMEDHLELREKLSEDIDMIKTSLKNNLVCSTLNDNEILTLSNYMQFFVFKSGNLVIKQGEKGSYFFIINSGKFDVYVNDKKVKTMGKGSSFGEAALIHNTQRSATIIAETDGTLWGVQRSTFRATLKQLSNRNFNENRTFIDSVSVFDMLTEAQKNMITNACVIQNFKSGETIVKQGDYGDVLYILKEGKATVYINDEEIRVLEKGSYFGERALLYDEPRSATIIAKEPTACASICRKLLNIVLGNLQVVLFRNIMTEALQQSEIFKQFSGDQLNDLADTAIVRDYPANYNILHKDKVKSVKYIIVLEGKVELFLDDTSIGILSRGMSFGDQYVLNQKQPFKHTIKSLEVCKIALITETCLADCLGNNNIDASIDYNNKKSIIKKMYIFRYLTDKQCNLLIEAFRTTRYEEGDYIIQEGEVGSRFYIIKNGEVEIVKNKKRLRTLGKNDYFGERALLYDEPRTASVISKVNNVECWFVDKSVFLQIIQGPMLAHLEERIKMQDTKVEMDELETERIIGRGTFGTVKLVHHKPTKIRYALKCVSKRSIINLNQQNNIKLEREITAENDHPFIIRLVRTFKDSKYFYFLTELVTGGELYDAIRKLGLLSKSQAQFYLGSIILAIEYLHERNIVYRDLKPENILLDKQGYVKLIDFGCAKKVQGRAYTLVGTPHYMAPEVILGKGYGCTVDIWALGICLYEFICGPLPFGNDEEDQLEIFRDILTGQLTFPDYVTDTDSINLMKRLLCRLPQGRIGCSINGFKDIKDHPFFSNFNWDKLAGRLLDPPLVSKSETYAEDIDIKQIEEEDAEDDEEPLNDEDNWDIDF

Test [1] concerns P. falciparum 3D7 (WT) asexual stage parasites. In words: Growth inhibition assay, asexual stage parasites, WT 3D7. Type of test: cell-based. As to conditions: Plasmodium falciparum; 3D7 asexual stage parasites, 72 h; mean ± SD, n = 1–2. The procedure:
(§1) lines were maintained with O+ human erythrocytes (BioIVT). WT 3D7A10 and T618Q parasites were kind gifts from Dr. David Fidock (Columbia University) and Dr. David Baker (London School of Tropical Medicine and Hygiene), respectively. Growth inhibition assays were performed as previously described. Parasites were grown in RPMI 1640 medium (Sigma-Aldrich, St. Louis, MO, U.S.A.) supplemented with 5 mg/mL Albumax (Gibco), 50 μg/mL hypoxanthine (Sigma-Aldrich), 2 mg/mL Na2CO3 (Sigma-Aldrich), 25 mM HEPES, and 50 μg/mL gentamicin (Gibco). The growth assay was initiated with cultures with >80% ring stage parasites, diluted to a parasitemia of 0.4% and a hematocrit of 1%. Parasites were transferred to a 96-well plate with test compounds, vehicle, or DHA as positive control, and maintained for 72 h in 5% CO2, 5% O2, and 90% N2 in a humidified chamber. Parasite viability at 72 h was determined by addition of SYBR Green I nucleic acid stain (Thermo Fisher Scientific, S7563) and Mitotracker Deep Red (Fisher M422426) followed by flow cytometry on a BD FACSVerse using BD FACSuite software. Data acquired were analyzed using Flowjo software. EC50 values were derived by nonlinear regression in Graph Pad Prism 7.

Test [2] has as its system P. falciparum T618Q asexual stage parasites. In words: Growth inhibition assay, asexual stage parasites expressing PfPKG T618Q. Type of test: cell-based. As to conditions: Plasmodium falciparum, 72 h, read-out: P. falciparum EC50 (±SD) T618Q. Here is the method: as §1
The next test deals with T1, TgCDPK1-G128M (Toxoplasma gondii, UniProt Q9BJF5, G128M).
T1 construct: made in house
T1 sequence (Q9BJF5 whole entry G128M): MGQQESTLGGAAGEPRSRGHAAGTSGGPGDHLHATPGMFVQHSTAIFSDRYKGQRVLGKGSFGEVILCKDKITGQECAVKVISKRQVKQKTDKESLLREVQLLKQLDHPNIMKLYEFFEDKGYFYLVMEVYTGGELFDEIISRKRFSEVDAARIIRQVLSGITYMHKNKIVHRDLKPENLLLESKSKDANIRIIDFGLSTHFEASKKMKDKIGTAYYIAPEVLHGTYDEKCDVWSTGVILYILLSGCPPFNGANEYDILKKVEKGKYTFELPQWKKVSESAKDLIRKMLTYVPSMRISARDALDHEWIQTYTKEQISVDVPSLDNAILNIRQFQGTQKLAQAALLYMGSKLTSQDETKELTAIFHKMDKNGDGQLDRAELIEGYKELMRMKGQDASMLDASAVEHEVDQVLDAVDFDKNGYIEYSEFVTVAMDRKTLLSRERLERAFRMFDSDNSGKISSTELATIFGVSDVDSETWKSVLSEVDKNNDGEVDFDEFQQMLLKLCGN
In words: CDPK enzyme activity assay, TgCDPK1 G128M. As to conditions: for TgCDPK1 G128M mutant enzyme less sensitive: G128M versus WT enzyme. Type of test: biochemical, T. gondii. The procedure:
(§2) Recombinant expression of PfCDPK1, PfCDPK4, TgCDPK1 WT, TgCDPK1-G128M, CpCDPK1 and CpCDPK1-G152 M were purified as previously described. […] These reactions were performed in a buffer composed of 1 mM EGTA (pH 7.2), 10 mM MgCl2, 20 mM HEPES pH 7.5 (KOH), 0.1% BSA. The reactions were initiated with addition of 10 μM ATP and 2 mM CaCl2 as enzyme activation reagent. Reaction plates were incubated for 90 min with 90 rpm agitation at 30 °C. […] KinaseGlo (Promega) luminescence-based assay in which luminescence is inversely related to kinase activity and […] was used as previously described.

The target of a further test is T2, CpCDPK1 (Cryptosporidium parvum, UniProt A3FQ16).
T2 construct: made in house
T2 sequence (A3FQ16 1-538): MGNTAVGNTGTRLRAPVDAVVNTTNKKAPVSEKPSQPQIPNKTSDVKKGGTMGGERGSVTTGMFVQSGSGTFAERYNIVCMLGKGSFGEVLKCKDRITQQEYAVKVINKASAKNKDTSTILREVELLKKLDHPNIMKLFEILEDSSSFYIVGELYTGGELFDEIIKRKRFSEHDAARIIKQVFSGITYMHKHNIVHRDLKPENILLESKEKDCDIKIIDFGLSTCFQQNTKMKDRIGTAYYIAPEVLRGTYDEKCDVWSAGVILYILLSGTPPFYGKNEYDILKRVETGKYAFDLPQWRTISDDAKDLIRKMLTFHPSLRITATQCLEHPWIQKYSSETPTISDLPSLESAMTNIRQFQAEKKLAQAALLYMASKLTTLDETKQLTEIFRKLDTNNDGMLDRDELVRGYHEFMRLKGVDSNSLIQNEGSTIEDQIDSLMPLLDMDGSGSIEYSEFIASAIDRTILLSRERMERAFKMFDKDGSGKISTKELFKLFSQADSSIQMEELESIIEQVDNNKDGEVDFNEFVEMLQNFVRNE
As to the kind of experiment: CDPK enzyme activity assay, CpCDPK1 WT. Type of test: biochemical, C. parvum. Here is the method: as §2

For another test, the target named is T3, CpCDPK1-G152M (Cryptosporidium parvum, UniProt A3FQ16, G152M).
T3 construct: made in house
T3 sequence (A3FQ16 whole entry G152M): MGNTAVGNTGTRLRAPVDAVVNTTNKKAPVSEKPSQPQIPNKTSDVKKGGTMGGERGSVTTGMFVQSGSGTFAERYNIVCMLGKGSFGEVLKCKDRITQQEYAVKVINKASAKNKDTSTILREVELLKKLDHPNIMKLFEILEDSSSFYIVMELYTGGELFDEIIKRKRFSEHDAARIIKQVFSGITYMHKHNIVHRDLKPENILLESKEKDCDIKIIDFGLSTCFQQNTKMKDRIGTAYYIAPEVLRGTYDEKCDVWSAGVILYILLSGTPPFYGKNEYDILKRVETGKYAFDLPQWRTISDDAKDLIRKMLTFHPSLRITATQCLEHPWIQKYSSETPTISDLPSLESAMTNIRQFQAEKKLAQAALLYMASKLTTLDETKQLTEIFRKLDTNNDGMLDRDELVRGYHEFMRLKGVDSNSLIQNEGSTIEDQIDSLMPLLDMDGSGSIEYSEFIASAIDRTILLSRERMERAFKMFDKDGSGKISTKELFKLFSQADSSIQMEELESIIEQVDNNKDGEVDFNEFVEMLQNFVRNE
As to the kind of experiment: CDPK enzyme activity assay, CpCDPK1 G152M. As to conditions: for CpCDPK1 G152M mutant enzyme less sensitive: G152M versus WT enzyme. It counts as biochemical, C. parvum. Here is the method: as §2

The test system of test [3] is T. gondii tachyzoites, parental control. In words: Proliferation EC50, host fibroblast nuclei count, parental control. The conditions noted are these: Toxoplasma gondii. It counts as cell-based. The procedure:
Human Foreskin Fibroblasts (HFF) were cultured in DMEM, with D-glucose (4.5 g/L), L-glutamine, and sodium pyruvate (110 mg/L) (Gibco) that were further supplemented with 10% Fetal Clone 1 serum (FCS)(HyClone), 50 U/mL penicillin (Gibco), […] streptomycin (Gibco), and 1× GlutaMax (Gibco). HFF cells were cultured in T25 flasks (Corning) in a humidified incubator at 37 °C and 5% CO2. For culture, media was replaced with DMEM, as described above, with 1% FCS. Mutant strains were created as described in.
Presence of desired mutations in parasite lines, TgCDPK1^G128M, TgCDPK1^G128M + TgMAPKL1^L162Q and […] was verified through sequencing. Compounds were dissolved in DMSO and serially diluted 4-fold across the first 10 wells of a 96 well plate, with the highest drug concentration in the first column being 25 μM. The strain of was then added to the first 11 columns of the 96-well plate at a density of 4000 parasites per well. The 11th column contained no compounds, and the 12th column contained no parasites and no compound. After 5 days of incubation at 37 °C and 5% CO2, cells were washed with PBS and fixed with 4% PFA in PBS (Thermo Fisher Scientific, Waltham, MA, USA). After fixing, cells were washed three times with PBS and stained with 300 nM DAPI in PBS before being washed again three times with PBS.
Images were acquired in an ImageXpress Pico Automated Cell Imaging System (Molecular Devices, San Jose, CA, USA) with a 4× objective using UV fluorescence. Following imaging, ImageXpress software was used to count objects with a fluorescence intensity ≥8 and a size of 12–30 μm, giving a total count of host cell nuclei for each well. EC50 were determined based on the number of remaining fibroblast nuclei using a nonlinear regression analysis with GraphPad Prism software version 10.0.0 for Windows, GraphPad Software, Boston, Massachusetts USA. Each compound was tested in ≥3 experiments in quadruplicate rows.

Test [4] has as its system T. gondii RH strain expressing β-galactosidase, parental. In words: Proliferation EC50, β-galactosidase readout, parental strain. Type of test: cell-based. The conditions noted are these: Toxoplasma gondii, 72 h, read-out: T. gondii EC50 (±SD) CONTROL.
The mark [5] stands for this setting: read-out: T. gondii EC50 (±SD) CONTROL, tachyzoites, parental control of CDPK1 G128M, mean ± SD, n = 3–5.
[6] abbreviates: read-out: T. gondii EC50 (±SD) CONTROL, tachyzoites, parental control of PKG T761Q, mean ± SD, n = 3–5.
The mark [7] stands for this setting: read-out: T. gondii EC50 (±SD) CONTROL, tachyzoites, parental control of the double mutant, mean ± SD, n = 3–5.

Read-outs that look alike come from different tables or passages of the source. Bounds are passed on as bounds.

With `O=C(c1nccs1)N1CC[C@@H](Nc2nccc(-n3cc(C4CC4)nc3-c3ccccc3)n2)C1` [(R)-RY-1-165], the half-maximal inhibitory concentration (IC50) is 0.24 µM on PfPKG (recombinant enzyme, ADP-Glo assay, mean ± SD, n = 2–3 experiments, read-out: enzyme IC50 (±SD) PfPKG WT); over 30 µM against TgCDPK1-G128M; 0.17 µM against CpCDPK1; over 30 µM against CpCDPK1-G152M. For the same compound, the EC50 in test [1] was found to be 11 µM; in test [2] it was 13.4 µM; in test [3] (setting [5]) it was 0.86 µM; in test [3] (setting [6]), 0.26 µM; in test [3] (setting [7]), 0.54 µM; in test [4] it was 0.53 µM. For the same compound, at TgCDPK1-G128M, the “TgCDPK1 G128M mutant enzyme less sensitive” value is recorded as “at least 500 fold”. Also, the “CpCDPK1 G152M mutant enzyme less sensitive” value on CpCDPK1-G152M is “at least 175 ×”.
For `O=C(c1nccs1)N1CC[C@@H](Nc2nccc(-n3cc(C4CC4)nc3-c3cccc(Cl)c3)n2)C1` [(R)-RY-1-185], the concentration for half-maximal inhibition (IC50) is 0.19 µM at PfPKG; over 30 µM at TgCDPK1-G128M; 0.09 µM at CpCDPK1 (Kinase-Glo assay, mean ± SD, n = 2–3 experiments, read-out: CpCDPK1 IC50 (±SD) WT); over 30 µM at CpCDPK1-G152M. Also, the EC50 in test [1] is 6.5 µM; in test [2], 10.1 µM; in test [3] (setting [5]), 0.15 µM; in test [3] (setting [6]), 0.1 µM; in test [3] (setting [7]) it was 0.12 µM; in test [3] (read-out: average EC50 against parental parasites, parental of TgPKG T761Q), 0.094 µM. For the same compound, in test [4], the EC50 came to 0.12 µM. Besides, the “TgCDPK1 G128M mutant enzyme less sensitive” value on TgCDPK1-G128M is at least 600 fold. In addition, the “CpCDPK1 G152M mutant enzyme less sensitive” value on CpCDPK1-G152M is on record as at least 300 ×.

Usually IC50 stands for the concentration that gives 50% inhibition. What is called EC50 is the concentration needed to bring the measured effect to its halfway point.

The values are drawn from publication PMC12333026, “Versatile Imidazole Scaffold with Potent Activity against Multiple Apicomplexan Parasites” (ACS Infectious Diseases, 2025).
